According to patent US20250276100A1, “DEVELOPMENT OF NTSR TARGETED AGENTS FOR IMAGING AND THERAPY APPLICATIONS” (THE UNIVERSITY OF NORTH CAROLINA AT CHAPEL HILL, priority 2022, published 2025):
Entries after “also recorded” stand apart in the source; their conditions may differ. Read-outs that look alike come from different tables or passages of the source. Blank lines part the entries; values can stand above or below the compound they belong to. Where a SMILES comes first, the peptide text is derived from it. [ ]: non-standard residue; d: D form. The star is where a group is joined. Gly(1-amidinopiperidin-4-yl) = N=C(N)N1CCC([C@H](N)C(=O)O)CC1; Gly(piperidin-4-yl) = N[C@H](C(=O)O)C1CCNCC1; NMeR = CN[C@@H](CCCNC(=N)N)C(=O)O; Tle = CC(C)(C)[C@H](N)C(=O)O; X1 = O=S(=O)(CCOCCOCCF)CC*

What was measured:
PC3 tumor = test: microPET imaging and biodistribution of 18F labeled NTS peptide agent in PC3 tumor-bearing nude mice; format: in vivo
Protocol: (§1) The arrow indicates tumor. […]
(§2) Stabilized NTS peptide derivatives and constructed NTSR1 PET agents have been developed. A stabilized NTS analog with a Cys for ^18F labeling (Cys-NTSmut: Cys-pipGly-Pro-pipAmGly-Arg-Pro-Tyr-tBuGly-Leu-OH) was designed. […] Biodistribution studies were performed at 3 hr post injection, showing the tumor to muscle, liver, and kidney ratios at 19.4±5.5, 15.6±4.1, and 3.0±0.3, respectively. […] Despite the high contrast, its tumor retention is low.
(§3) Robust ^18F-labeling methods for facile preparation of ^18F-NTS agents based on NT peptide derivatives were developed. As one of the commonly used PET radioisotopes, ^18F can be easily produced in high quantities on a medical cyclotron with an ideal half-life of 110 min for imaging applications. The half-life of ^18F is sufficient to allow synthesis, transportation, and imaging procedures to be extended over several hours, while the patient is subjected to a limited amount of radiation exposure. A platform technology based on vinyl sulfone and TTCO ligation was developed, both of which are highly efficient for ^18F PET probe construction. After establishing efficient ^18F labeling methods, a stabilized NTS analog was designed with a Cys for ^18F labeling (Cys-NTSmut: Cys-pipGly-Pro-pipAmGly-Arg-Pro-Tyr-tBuGly-Leu-OH). Both ^18F-VS and TTCO ligation have been used to construct ^18F labeled PET agents targeting NTSR1.

[1] = as above; format: in vivo; settings: male, athymic nude, mouse, PC3 tumor model; for tissue to tissue ratio at 3 h: biodistribution at 3 hr post injection
Protocol: as §1, §2, §3

[2] = side by side comparison of 64Cu labeled SR-CP-05 with NT peptide analogs and 3BP-227 (FIG. 8), tumor uptake and contrast; format: in vivo; settings: tumor; for tissue uptake: mouse, NT peptide analogs, read-out: absolute tumor uptake value; for tissue uptake at 1 hr: FIG. 8 side by side comparison, 1 hr post injection
From the text: (§4) The NTSR1 targeted imaging agent was constructed based on NTS peptide derivatives. Although high tumor-to-background contrast could be obtained, the absolute tumor uptake was moderate with fast clearance from the subject. Moreover, these NTSR1 binding peptides are generally agonists of NTSR1, which may promote tumor progress at high concentration. This may not be a concern for PET imaging due to the limited amount, but it could be a potential risk in treatment. Antagonistic SR142948A based agents were developed, the lead agent being 3BP-227. Side by side comparisons between the lead agent SR-CP-05 and previously reported agents were performed. […] Importantly, SR-CP-05 maintained >15% ID/g tumor uptake at 48 hr post injection. In contrast, the tumor uptake of 3BP-227 decreased to 2.3% ID/g at 24 hr post injection. The unique distribution profile of SR-CP-05 can provide an imaging and radionuclide-based therapy agent targeting NTSR1.
(§5) SR-CP-05 was discovered to be well suited for therapy applications. […] Clearly, the fast clearance may be acceptable from an imaging point of view, but these ligands are not suited for therapeutic applications. […] Importantly, high contrast (tumor/background >20) was obtained at 1 hr post injection and the washout was minimal even after 48 hr post injection. […] Clearly, SR-CP-05 represents a highly promising ligand for both imaging and therapy applications.
(§6) Solution 1) The discovery of a new NTSR1 ligand SR-CP-05 for targeted imaging and therapy. The introduction of crosslinked polyamines into SR142948A (leading to the new agent, SR-CP-05) could increase the tumor uptake by 10 times compared with peptide based agents. Although the tumor to muscle contrast was reduced somewhat right after injection, the ratio is still >20 at 1 hr post injection. More importantly, the agent stayed within the tumor for up to 48 hr, making it useful for therapeutic applications as well. Side by side comparisons were made between SR-CP-05 and previously reported agents. […] Importantly, high contrast (tumor/muscle >20) was also obtained for SR-CP-05 at 1 hr post injection and the washout is minimal after 48 hr post injection (compared with tumor/muscle >3 at 1 hr post injection for 3BP-227). […] The unique distribution profile of SR-CP-05 provides an imaging and radionuclide-based therapy targeting NTSR1.

tumor = test system: tumor
From the text: Copper-64 (t1/2=12.7 hr) decays by β+ (20%) and β− emission (37%), as well as electron capture (43%), making it well suited for radiolabeling proteins, antibodies and peptides, for both PET imaging (β+) and therapy (β+ and β−). Limitations to the chelating agents currently used with ^64Cu include significant loss of ^64Cu from the conjugate, leading to high uptake in the liver. In order to overcome this limitation, a new class of bifunctional chelators (BFCs) based on the hexaazamacrobicyclic sarcophagine cage SarAr (1-N-(4-aminobenzyl)-3,6,10,13,16,19-hexaazabicyclo[6.6.6]-eicosane-1,8-diamine) was synthesized. These ligands coordinate metal ions such as Cu^2+ within the multiple macrocyclic rings comprising the Sar cage structure, yielding extraordinarily stable complexes that are inert to dissociation of the metal ion. The functionalization approach of Sar cage was improved through a direct alkylation (SN2) reaction.
However, the kidneys have much higher tracer uptake compared with liver, while the pattern was reversed on PET imaging (Cu-64 falls off DOTA and leads to high liver uptake).

NTSR1 [3] = target: T1, NTSR1 (Homo sapiens, UniProt P30989); test: in vivo distribution profile of SR-CP-05 derivatives (FIG. 13)
T1 construct: from tissue; host or cells: NTSR1-positive tumour in vivo
T1 sequence (P30989 whole entry): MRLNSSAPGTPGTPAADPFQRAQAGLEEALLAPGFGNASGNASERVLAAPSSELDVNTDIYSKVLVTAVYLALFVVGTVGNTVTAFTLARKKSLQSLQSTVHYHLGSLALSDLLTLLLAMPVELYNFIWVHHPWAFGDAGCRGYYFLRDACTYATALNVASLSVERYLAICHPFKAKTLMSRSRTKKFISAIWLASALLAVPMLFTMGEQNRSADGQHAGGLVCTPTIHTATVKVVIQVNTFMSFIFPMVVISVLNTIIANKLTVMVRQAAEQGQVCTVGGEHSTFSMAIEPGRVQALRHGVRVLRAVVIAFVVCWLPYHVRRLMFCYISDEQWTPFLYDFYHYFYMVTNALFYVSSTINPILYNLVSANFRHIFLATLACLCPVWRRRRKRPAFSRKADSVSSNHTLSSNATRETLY

NTSR1 [4] = target: T1, NTSR1; test: side by side comparison of 64Cu labeled SR-CP-05 with NT peptide analogs and 3BP-227 (FIG. 8), tumor uptake and contrast; format: in vivo
From the text: as §4, §5, §6

[5] = PC3 tumor model, biodistribution at 3 hr post injection

Compound: CC(C)C[C@H](NC(=O)[C@@H](NC(=O)[C@H](Cc1ccc(O)cc1)NC(=O)[C@@H]1CCCN1C(=O)[C@H](CCCNC(=N)N)NC(=O)[C@@H](NC(=O)[C@@H]1CCCN1C(=O)[C@@H](N)C1CCNCC1)C1CCN(C(=N)N)CC1)C(C)(C)C)C(=O)O [NTSmut, reference compound] (H-[Gly(piperidin-4-yl)]P[Gly(1-amidinopiperidin-4-yl)]RPY[Tle]L-OH; N-terminus and C-terminus assumed)
tissue uptake [2]: ~1.5 %ID/g

Compound: CC[N+]1=C(/C=C/C=C/C=C2/N(CCCCCC(=O)NCCCC[C@H](NC(=O)CN3CCN(CC(=O)O)CCN(CC(=O)O)CCN(CC(=O)O)CC3)C(=O)NCCCCCC(=O)N[C@@H](CC(=O)O)C(=O)NCC(=O)N[C@@H](CCC(=O)O)C(=O)NC(C)C(=O)O)c3ccc4c(S(=O)(=O)O)cc(S(=O)(=O)O)cc4c3C2(C)C)C(C)(C)c2c1ccc1c(S(=O)(=O)[O-])cc(S(=O)(=O)O)cc21 (some centres unmarked) [DOTA-K(Cy5.5)-Ahx-DGEA]
in vivo distribution pattern (tumor): discrepancy between optical and PET imaging | ex vivo distribution pattern (tumor; in vivo): discrepancy between optical and PET imaging

Compound: CC(=O)N[C@@H](CCCCN)C(=O)N1CCC[C@H]1C(=O)N(C)[C@@H](CCCNC(=N)N)C(=O)N[C@@H](CCCNC(=N)N)C(=O)N1CCC[C@H]1C(=O)N[C@@H](Cc1ccc(O)cc1)C(=O)N[C@H](C(=O)N[C@@H](CC(C)C)C(=O)O)C(C)(C)C [NTS20.3, reference compound] (Ac-KP[NMeR]RPY[Tle]L-OH; N-terminus and C-terminus assumed)
tissue uptake [2]: ~1.5 %ID/g

Compound: CNC(=O)c1ccc(-n2nc(C(=O)NC3(C(=O)O)C4CC5CC(C4)CC3C5)cc2-c2c(OC)cccc2OC)c(C(C)C)c1 (centres unmarked) [SR-CP-05]
liver uptake (NTSR1 [3]; in vivo): still relatively high | overall side by side comparison (NTSR1 [4]; 64Cu labeled, FIG. 8): outperforms both NT peptide analogs and other agents based on SR142948A | tumor/background contrast (NTSR1 [4]; 1 hr post injection): > 20 | tumor/muscle ratio (NTSR1 [4]; 1 hr post injection): > 20 | tumor uptake (NTSR1 [4]; FIG. 8 side by side comparison, 1 hr post injection): > 15 % ID/g | tumor washout (NTSR1 [4]; after 48 hr (two days) post injection): only a minimal amount of tumor wash out | time the agent stayed within the tumor (NTSR1 [4]; in vivo): up to 48 hr | tumor uptake (NTSR1 [4]; in vivo): both high and persistent tumor uptake | tumor uptake higher than 3BP-227 (NTSR1 [4]; side by side comparison): 75% | tissue uptake at 24 hr ([2]; 24 hr post injection): > 15 %ID/g | tissue uptake at 48 hr ([2]; 48 hr post injection): > 15 %ID/g | tissue uptake at 1 hr [2]: 15.5 %ID/g | tissue uptake at 1 hr ([2]; other: injection (kind of injection not stated)): 15.6 %ID/g | tissue uptake at 1 hr ([2]; other: injection): 15.6 %ID/g

The next lines start with results.

background in major tissues/organs, including blood, muscle, liver and kidneys (PC3 tumor; PC3 tumor model): low background | clearance from mice (PC3 tumor; PC3 tumor model): cleared out from mice within a few hours | tumor retention (PC3 tumor; PC3 tumor model): low | tumor uptake (PC3 tumor; PC3 tumor model): 1.3±0.1 % ID/g | tumor/kidney ratio (PC3 tumor; [5]): 3.0±0.3 | tumor/liver ratio (PC3 tumor; [5]): 15.6±4.1 | tumor/muscle ratio (PC3 tumor; [5]): 19.4±5.5 | tissue to tissue ratio at 3 h ([1]; tumor and kidney, read-out: tumor/kidney ratio): 3 ± 0.3 | tissue to tissue ratio at 3 h ([1]; tumor and liver, read-out: tumor/liver ratio): 15.6 ± 4.1 | tissue to tissue ratio at 3 h ([1]; tumor and muscle, read-out: tumor/muscle ratio): 19.4 ± 5.5 | tissue uptake [1]: 1.3 %ID/g
Compound: CC(C)C[C@H](NC(=O)[C@@H](NC(=O)[C@H](Cc1ccc(O)cc1)NC(=O)[C@@H]1CCCN1C(=O)[C@H](CCCNC(=N)N)NC(=O)[C@@H](NC(=O)[C@@H]1CCCN1C(=O)[C@@H](NC(=O)[C@@H](N)CSCCS(=O)(=O)CCOCCOCCF)C1CCNCC1)C1CCN(C(=N)N)CC1)C(C)(C)C)C(=O)O [^18F-VS-Cys-NTSmut] (H-C(X1)[Gly(piperidin-4-yl)]P[Gly(1-amidinopiperidin-4-yl)]RPY[Tle]L-OH; N-terminus assumed)
tumor uptake in the presence of cold NTS peptide (receptor specificity) (PC3 tumor; PC3 tumor, blocking with cold NTS peptide, listed as 18F-DEG-VS-NTS): successfully blocked; also recorded: efficiently blocked

tumor uptake relative to SR-CP-05 (NTSR1 [3]; in vivo): less than half of SR-CP-05
Compound: COc1cccc(OC)c1-c1cc(C(=O)NC2(C(=O)O)C3CC4CC(C3)CC2C4)nn1-c1ccc(C(=O)N(C)CCCN(C)C(=O)CN2CCCN3CCN(CCCN(CC(=O)O)CC3)CC2)cc1C(C)C (centres unmarked) [SR-CP-18]
distribution (NTSR1 [3]; 24 hr time point, FIG. 13): mainly showed tumor accumulation; also recorded: high contrast
